Assay results: patent publication US20110105457A1, “HETEROCYCLIC COMPOUND HAVING INHIBITORY ACTIVITY ON PI3K” (SHIONOGI & CO., LTD., priority 2008, published 2011)

What was measured:
PI-3 kinase γ = PI-3 kinase γ (Homo sapiens, UniProt P48736); assay: PI3Kγ inhibitory activity, PI3-kinase HTRF assay (Millipore); assay type: biochemical; conditions: 0.5 h; compound 50 μM; read-out: Inhibition ratio % (50 μM)
Experimental: (Method) The PI3Kγ inhibitory activity of a compound was evaluated using PI3-kinase HTRF™ assay (Millipore) according to the following procedure.
To each well of a testing plate was added 5 μL of a compound solution comprising 10% DMSO (200 μM as the concentration of the compound), 5 μL of 40 μM phosphatidylinositol (4,5)-bisphosphate/20 mM MgCl2/10 mM DTT, and 5 μL of 80 μg/mL PI-3 kinase γ/10 mM MgCl2/5 mM DTT, and then stood for 10 minutes.
Then, 5 μL of 40 μM ATP/10 mM MgCl2/5 mM DTT was added thereto. After reacting for 30 minutes at room temperature, 5 μL of a solution comprising EDTA and biotinylated phosphatidylinositol (3,4,5)-triphosphate was added to quench the reaction.
5 μL of a detection reagent comprising a europium-labeled anti-GST antibody, the GST-tagged PH domain, and allophycocyanin-labeled streptavidin was added thereto. After 18 hours, HTRF (excitation wavelength: 330 nm, measuring wavelengths: 620 nm and 665 nm) was measured.
A value of dividing an amount of fluorescence obtained at the measuring wavelength 665 nm by an amount of fluorescence obtained at 620 nm was defined as an HTRF ratio. The HTRF ratio in the absence of a compound was defined as 100% activity, and the HTRF ratio in the absence of PI-3 kinase γ was defined as 0% activity to calculate an inhibition ratio.

Solubility test = assay type: physicochemical; conditions: 25 °C, fassgf or other biorelevant, kinetic from dmso stock, artificial intestinal juice pH 6.8, 1% DMSO, 25 degrees Celsius
Experimental: 10 mM compound solution was prepared using DMSO, and then 6 μL of the compound solution was added to 594 μL of artificial intestinal juice in pH 6.8 (to 250 mL of 0.2 mol/L potassium dihydrogen phosphate reagent solution was added 118 mL of 0.2 mol/L NaOH reagent solution and water to provide a final volume of 1000 mL). After standing at 25 degrees Celsius for 16 hours, the mixed solution was filtrated with suction. The filtrate was diluted twice with methanol/water (1/1), and then a concentration in the filtration was measured with HPLC or LC/MS/MS by the absolute calibration method.

[1] = target: T1, human ether-a-go-go related gene (hERG) channel (Homo sapiens, UniProt Q12809); assay: hERG test, whole-cell patch-clamp in HEK293 cells; assay type: cell-based; conditions: HEK293 cells expressing hERG; concentration not given
T1 construct: expressed in transfected cells; host or cells: HEK293
T1 sequence (Q12809 whole entry): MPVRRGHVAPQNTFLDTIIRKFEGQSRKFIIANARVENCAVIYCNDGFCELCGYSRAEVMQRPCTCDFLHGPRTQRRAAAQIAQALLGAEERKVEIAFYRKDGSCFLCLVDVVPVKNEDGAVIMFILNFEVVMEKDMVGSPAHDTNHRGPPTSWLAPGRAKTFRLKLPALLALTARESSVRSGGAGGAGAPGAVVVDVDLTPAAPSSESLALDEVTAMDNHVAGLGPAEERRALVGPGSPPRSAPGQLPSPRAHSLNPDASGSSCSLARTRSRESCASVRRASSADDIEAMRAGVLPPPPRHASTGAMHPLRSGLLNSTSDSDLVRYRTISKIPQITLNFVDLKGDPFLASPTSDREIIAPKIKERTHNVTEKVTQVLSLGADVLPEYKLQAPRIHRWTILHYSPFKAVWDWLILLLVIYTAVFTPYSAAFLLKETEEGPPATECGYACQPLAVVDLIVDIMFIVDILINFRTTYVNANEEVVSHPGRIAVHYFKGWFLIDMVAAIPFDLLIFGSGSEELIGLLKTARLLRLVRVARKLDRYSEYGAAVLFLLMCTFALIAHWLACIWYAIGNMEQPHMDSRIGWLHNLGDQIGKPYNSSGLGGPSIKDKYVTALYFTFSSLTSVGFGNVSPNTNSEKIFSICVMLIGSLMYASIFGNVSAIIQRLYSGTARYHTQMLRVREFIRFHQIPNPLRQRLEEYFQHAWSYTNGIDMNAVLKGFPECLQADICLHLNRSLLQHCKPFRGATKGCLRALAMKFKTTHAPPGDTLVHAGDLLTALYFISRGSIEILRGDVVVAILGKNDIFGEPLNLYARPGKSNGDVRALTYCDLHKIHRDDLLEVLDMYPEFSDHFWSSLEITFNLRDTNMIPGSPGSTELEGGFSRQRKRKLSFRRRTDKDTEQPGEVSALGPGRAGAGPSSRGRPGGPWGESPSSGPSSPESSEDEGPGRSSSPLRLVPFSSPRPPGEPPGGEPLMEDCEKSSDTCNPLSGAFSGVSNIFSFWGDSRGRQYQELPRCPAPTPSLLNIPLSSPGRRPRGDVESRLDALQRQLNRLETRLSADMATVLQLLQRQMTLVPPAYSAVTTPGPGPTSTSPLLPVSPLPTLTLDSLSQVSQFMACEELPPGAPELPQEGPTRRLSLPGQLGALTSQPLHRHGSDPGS
Text: For the purpose of a risk evaluation of QT interval extension of electrocardiogram, using the HEK293 cell that was made express human ether-a-go-go related gene (hERG) channel, the activity on delayed rectification K^+ current (IKr) playing an important role in a cardiac ventricle repolarization process was examined.
Using an automatic patch-clamp system (PatchXpress 7000A, Axon Instruments Inc.), by a whole-cell patch-clamp method, after the cell was maintained at a membrane potential of −80 mV, IKr induced on giving depolarizing stimulation of +50 mV for 2 seconds and further repolarizing stimulation of −50 mV for 2 seconds was recorded. After generated current became stable, extracellular fluid (NaCl: 137 mmol/L, KCl: 4 mmol/L, CaCl2.2H2O: 1.8 mmol/L, MgCl2.6H2O: 1 mmol/L, glucose: 10 mmol/L, HEPES (4-(2-hydroxyethyl)-1-piperazineethanesulfonic acid): 10 mmol/L, pH=7.4) dissolving a test substance at an intended concentration was applied to the cell for 10 minutes under room temperature condition. From the IKr obtained, using an analysis soft (DataXpress ver. 1, Molecular Devices Corporation), a current value in a membrane potential maintained was used as a standard, and the absolute value of the maximum tail current was measured. Moreover, an inhibition ratio for the maximum tail current prior to the application of the test substance was calculated, and then compared with a group of media-application (0.1% dimethylsulfoxide solution) to evaluate influence of the test substance on IKr.

[2] = Metabolic stability test, pooled human liver microsome; assay type: in vitro ADME; conditions: human liver microsome 0.5 mg protein/mL, NADPH, 37 degrees Celsius, 30 minutes
Experimental: After a subject compound was reacted for a certain time using a pooled human liver microsome commercially available, a reacted sample and an unreacted sample are compared to calculate a survival ratio, and then the degree of metabolism in the liver was evaluated.
0.2 mL of a buffer solution (50 mmol/L of Tris-HCl in pH 7.4, 150 mmol/L of potassium chloride, and 10 mmol/L of magnesium chloride) containing a human liver microsome of 0.5 mg protein/mL was reacted in the presence of 1 mmol/L NADPH at 37 degrees Celsius for 0 or 30 minutes (oxidative reaction). After reacting, 50 μL of the reaction solution was added to 100 μL of a solution of methanol/acetonitrile (1/1(v/v)), mixed, and then centrifuged at 3000 rpm for 15 minutes. A test compound in the supernatant was quantitated with LC/MS/MS. An amount of the compound remained at a reaction time of 0 minute was defined as 100%, and, based on that, an amount of the test compound remained after the reaction was calculated.

Sequence of PI-3 kinase γ (P48736 whole entry): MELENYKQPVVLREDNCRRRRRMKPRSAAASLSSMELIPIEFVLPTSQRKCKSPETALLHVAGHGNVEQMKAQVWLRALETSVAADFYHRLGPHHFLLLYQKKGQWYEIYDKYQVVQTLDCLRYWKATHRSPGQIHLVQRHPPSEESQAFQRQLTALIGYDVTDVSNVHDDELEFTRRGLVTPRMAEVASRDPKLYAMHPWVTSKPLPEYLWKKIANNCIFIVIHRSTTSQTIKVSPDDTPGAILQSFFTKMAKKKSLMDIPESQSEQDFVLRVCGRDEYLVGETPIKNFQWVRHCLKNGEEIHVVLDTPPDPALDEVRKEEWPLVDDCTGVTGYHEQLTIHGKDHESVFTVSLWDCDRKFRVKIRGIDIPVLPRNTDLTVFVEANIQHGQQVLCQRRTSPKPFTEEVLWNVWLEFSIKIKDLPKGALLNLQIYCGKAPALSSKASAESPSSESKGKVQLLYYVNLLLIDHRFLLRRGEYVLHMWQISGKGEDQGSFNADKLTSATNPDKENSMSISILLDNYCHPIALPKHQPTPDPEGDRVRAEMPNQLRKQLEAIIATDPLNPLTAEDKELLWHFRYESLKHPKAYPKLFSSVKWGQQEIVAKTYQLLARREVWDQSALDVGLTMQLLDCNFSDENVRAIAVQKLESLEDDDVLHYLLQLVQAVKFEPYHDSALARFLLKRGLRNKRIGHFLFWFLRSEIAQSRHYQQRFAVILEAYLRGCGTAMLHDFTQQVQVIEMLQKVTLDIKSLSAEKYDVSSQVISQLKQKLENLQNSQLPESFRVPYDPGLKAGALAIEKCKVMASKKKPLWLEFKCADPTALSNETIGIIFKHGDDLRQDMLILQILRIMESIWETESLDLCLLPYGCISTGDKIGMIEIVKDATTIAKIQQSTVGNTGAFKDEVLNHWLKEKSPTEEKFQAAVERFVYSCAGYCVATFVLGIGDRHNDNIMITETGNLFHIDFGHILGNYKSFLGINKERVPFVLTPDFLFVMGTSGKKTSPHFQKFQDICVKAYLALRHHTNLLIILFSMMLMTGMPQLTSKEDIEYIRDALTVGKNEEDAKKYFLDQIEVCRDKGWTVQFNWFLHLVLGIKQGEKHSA

Row | inhibition at 50 µM (PI-3 kinase γ) [%] | SMILES | other results
1 | 82 | COc1cccc(-c2ccc3nc(NC(=O)NCCO)cn3n2)c1 [Compound I-270] | solubility at 16 h (Solubility test): > 50 µM
2 | 92 | CNC(=O)Nc1cn2nc(C(=O)c3ccccc3)ccc2n1 [Compound I-280] | Inhibition ratio for the maximum tail current (IKr) [1]: 5.8%
3 | 84 | CNC(=O)Nc1cn2nc(-c3cccc(C(N)=O)c3)ccc2n1 [Compound I-29] | Amount of the test compound remained after the reaction [2]: 98.8%
4 | 102 | CNC(=O)Nc1cn2nc(-c3cccc(N(C)C)c3)ccc2n1 [Compound I-143] | Inhibition ratio for the maximum tail current (IKr) [1]: 7.8%
5 | 98 | CCC(C)C(=O)Nc1cn2nc(-c3cccc(OC)c3)ccc2n1 (centres unmarked) [Compound I-182] | Inhibition ratio for the maximum tail current (IKr) [1]: 9.3%
6 | 89 | CNC(=O)Nc1cn2nc(-c3cccc(C(=O)O)c3)ccc2n1 [Compound I-28] | solubility at 16 h (Solubility test): > 50 µM; Amount of the test compound remained after the reaction [2]: 98.6%
7 | 79 | CNC(=O)Nc1cn2nc(-c3cccc(CCCO)c3)ccc2n1 [Compound I-136] | solubility at 16 h (Solubility test): > 50 µM
8 | 85 | COc1cccc(-c2ccc3nc(NC(=O)CCCn4cncn4)cn3n2)c1 [Compound I-210] | Amount of the test compound remained after the reaction [2]: 97%
9 | 58 | COc1cccc(-c2ccc3nc(NC(=O)c4ccccc4Cl)cn3n2)c1 [Compound I-163] | Amount of the test compound remained after the reaction [2]: 98.1%
10 | – | CCOC(=O)c1nc[nH]c1C(=O)Nc1cn2nc(-c3cccc(OC)c3)ccc2n1 [Compound I-208] | Inhibition ratio for the maximum tail current (IKr) [1]: 0.5%
11 | 84 | CNC(=O)Nc1cn2nc(-c3cccc(S(C)(=O)=O)c3)ccc2n1 [Compound I-75] | solubility at 16 h (Solubility test): > 50 µM
12 | 64 | COc1cccc(-c2ccc3nc(NC(=O)Nc4ccccc4)cn3n2)c1 [Compound I-118] | Amount of the test compound remained after the reaction [2]: 95.9%
13 | 89 | COc1cccc(-c2ccc3nc(NC(=O)Nc4cccs4)cn3n2)c1 [Compound I-108] | –
14 | 78 | CNC(=O)Nc1cn2nc(-c3cccc(COC)c3)ccc2n1 [Compound I-132] | –
15 | 86 | COc1cccc(-c2ccc3nc(NC(=O)NC(C)C)cn3n2)c1 [Compound I-113] | –
16 | 65 | CNC(=O)Nc1cn2nc(-c3ccc(-c4ccccc4)s3)ccc2n1 [Compound I-133] | –
17 | 67 | COc1cccc(-c2ccc3nc(NC(=O)NCc4ccccn4)cn3n2)c1 [Compound I-236] | –
18 | 68 | COc1cccc(-c2ccc3nc(NC(=O)c4cccc(N5CCN(C)CC5)c4)cn3n2)c1 [Compound I-203] | –
19 | 81 | CNC(=O)Nc1cn2nc(-c3cccc(C(=O)N4CCCC4)c3)ccc2n1 [Compound I-137] | Inhibition ratio for the maximum tail current (IKr) [1]: 8.4%
20 | 81 | CNC(=O)Nc1cn2nc(Sc3ccccc3)ccc2n1 [Compound I-18] | –
21 | 70 | CNC(=O)Nc1cn2nc(-c3cccc(COC(C)(C)C)c3)ccc2n1 [Compound I-131] | –

Row | inhibition at 50 µM (PI-3 kinase γ) [%] | SMILES | other results
22 | 54 | CNC(=O)Nc1cn2nc(-c3cccc(C(F)(F)F)c3)ccc2n1 [Compound I-154] | –
23 | 101 | COc1ccc(Nc2cn3nc(-c4cccc(OC)c4)ccc3n2)cc1 [Compound I-287] | –
24 | 77 | CNC(=O)Nc1cn2nc(NC(=O)c3ccc(C(=O)O)cc3)ccc2n1 [Compound I-160] | –
25 | 74 | COc1cccc(-c2ccc3nc(NC(=O)NCCc4ccccc4)cn3n2)c1 [Compound I-107] | –
26 | 61 | CNC(=O)Nc1cn2nc(N3CCOC3=O)ccc2n1 [Compound I-122] | –
27 | 86 | CNC(=O)Nc1cn2nc(NC(=O)Nc3cccc(C(=O)O)c3)ccc2n1 [Compound I-159] | –
28 | 69 | COc1cccc(-c2ccc3nc(Nc4ccccc4)cn3n2)c1 [Compound I-27] | –
29 | 57 | CNC(=O)Nc1cn2nc(-c3ccc(NC(=O)OC)cc3)ccc2n1 [Compound I-80] | –
30 | 77 | CNC(=O)Nc1cn2nc(Nc3ccccc3)ccc2n1 [Compound I-7] | –
31 | 71 | COc1cccc(-c2ccc3nc(NC(=O)NCC(=O)OC(C)(C)C)cn3n2)c1 [Compound I-248] | Inhibition ratio for the maximum tail current (IKr) [1]: 6.7%
32 | 84 | COc1cccc(-c2ccc3nc(NC(=O)C4CCOCC4)cn3n2)c1 [Compound I-194] | –
33 | 89 | CNC(=O)Nc1cn2nc(-c3cccc(NS(C)(=O)=O)c3)ccc2n1 [Compound I-74] | –
34 | 78 | CNC(=O)Nc1cn2nc(Cc3cccc(OC)c3)ccc2n1 [Compound I-282] | –
35 | 83 | CCCNC(=O)c1ccc2nc(NC(=O)NC)cn2n1 [Compound I-48] | –
36 | 87 | CNC(=O)Nc1cn2nc(-c3cn[nH]c3)ccc2n1 [Compound I-141] | –
37 | 57 | CNC(=O)Nc1cn2nc(-c3cccc(-c4ccccc4)c3)ccc2n1 [Compound I-155] | –
38 | 62 | COc1cccc(-c2ccc3nc(NC(=O)NCCC(=O)N4CCOCC4)cn3n2)c1 [Compound I-268] | –
39 | 87 | COc1cccc(-c2ccc3nc(NC(=O)NN(C)C)cn3n2)c1 [Compound I-276] | –
40 | 74 | CNC(=O)Nc1cn2nc(Nc3cccc(OCc4ccccc4)c3)ccc2n1 [Compound I-53] | –
41 | 80 | CNC(=O)Nc1cn2nc(-c3cccc(O)c3)ccc2n1 [Compound I-152] | –
42 | 76 | CNC(=O)Nc1cn2nc(C(=O)Nc3ccc(Cl)cc3)ccc2n1 [Compound I-46] | –
